Assays:
[1] = tested on: c-kit-2; set-up: method as in earlier work; details: ref [1], cited from earlier work
[2] = tested on: HeLa cells; experiment: Cytotoxicity assay (MTT assay); assay type: cell-based, human; details: for Inhibitory rates (%): 20 μM
Method: (§1) To evaluate the cytotoxicity of chiral platinum(II) complexes, HeLa, BEL-7402, MGC80-3, BEL-7404, A549, Hep-G2 and HL-7702 cells (normal cells) were treated with varying concentrations of complexes 1–6 and cisplatin (positive control, cisplatin was dissolved at a concentration of 1.0 mM in 0.154 M NaCl) for 24 h and 48 h. The cell viability of each experimental group was examined by MTT assays. […] [61, 62]. […] Therefore, complex 6 (10 μM) was selected for cell apoptosis analysis by flow-cytometry, RT-PCR, caspase-3/9 activation assays, western blot and transfection assays in BEL-7404 cells for 24 h. In addition, this observed difference in in vitro cytotoxicity between the three complexes 4–6 could be due to the influence of the chirality of the FOA ligand [68]. […]
(§2) Materials 100 U/mL penicillin and 100 μg/mL streptomycin in 25 cm2 culture flasks at 37 °C humidified atmosphere with Tris, RNase A, and propidium iodide (PI) were 5% CO2. All cells to be tested in the following assays have purchased from Sigma. The antibody of mutp53, a passage number of 3-6. […]
(§3) were purchased from Abcam. Unless otherwise stated, BEL-7404, A549, and Hep-G2 cancer-cell lines and HL-spectroscopic titration experiments were carried out in 7702 normal cells) per well were seeded in triplicate in TBS (10 mM pH7.35 Tris-HCl, containing 100 mM KCl). 96-well plates and incubated for 24 h at 37 °C and 5.0% The total RNA isolation kit and the two-step RT-PCR kit CO2/95.0% air. Then graded amounts of compound were purchased from TIANGEN. DNA oligomers (highly added to the wells in 10.0 μL of FBS free culture medium polymerized stored at 4 °C; long-term storage at −20 °C) and the plates were incubated in a 5% CO2 humidified are listed in Supplementary Table 1 and were obtained from atmosphere for 24 h and 48 h. Six replica wells were used Shanghai Sangon Biological Engineering Technology & as controls. Each the cells were grew for 12.0 h before Services (Shanghai, China). All tumor cell lines (HeLa, treatment to reach 70.0% confluency and 20.0 μL of tested BEL-7402, MGC80-3, BEL-7404, A549, Hep-G2 cancer- various concentrations of compounds were added to each cell lines and normal liver cell line HL-7702) were obtained well. The final concentration of the tested complexes from the Shanghai Institute for Biological Science (China). or compounds were kept at 1.25, 2.5, 5, 10, 20 μM, Stock solutions of all the compounds (2.0 mM) were made respectively. After 24 h or 48 h of culture, 0.1 mg of in DMSO, and further dilutions to working concentrations MTT (in 20 μL of PBS) was added to each well, and cells were made with corresponding buffer. were incubated at 37 °C for 6 h. The formed formazan crystals were then dissolved in 100 μL of DMSO and the Instrumentation absorbance was read by enzyme labeling instrument with Infrared spectra were obtained on a Perkine Elmer 490/630 nm double wavelength measurement. The final FT-IR Spectrometer. Elemental analyses (C, H, N) IC50 values were calculated by the Bliss method (n = 5). were carried out on a Perkin Elmer Series II CHNS/O All tests were repeated in at least three independent trials. […]
(§4) 10.0 min. The cell pellet obtained was dissolved in 1.0 M
(§5) The region between 200 and 400 nm was scanned for each NaOH (1.0 mL) and diluted with 2.0% (v/v) HNO3 (5.0 sample. MTT assay was performed on M1000 microplate mL) for determining whole cell Pt content. Another set reader (Tecan Trading Co. Ltd, Shanghai, China). Cell was treated similarly, nuclear proteins, nuclear fraction, cycle and apoptosis analysis was recorded on FACS Aria cytoplasmic protein, membrane proteins and other fraction II Flow Cytometer (BD Biocsiences, San Jose, USA). were isolated as described by Chen and Schreiber et al. And the each final solution was made up to 5.0 mL
(§6) Cytotoxicity assay (MTT assay) using 2.0% (v/v) HNO3. The amount of Pt taken up by the cells was determined by ICP-MS. The instrument was […]

[3] = tested on: A549 cells; experiment: Cytotoxicity assay (MTT assay); assay type: cell-based, human; details: for Inhibitory rates (%): A549, 20 μM
Method: as §1, §2, §3, §4, §5, §6

[4] = tested on: MGC80-3 cells; experiment: Cytotoxicity assay (MTT assay); assay type: cell-based, human; details: for Inhibitory rates (%): MGC80-3, 20 μM
Method: as §1, §2, §3, §4, §5, §6

[5] = tested on: BEL-7402 cells; experiment: Cytotoxicity assay (MTT assay); assay type: cell-based, human; details: for Inhibitory rates (%): BEL-7402, 20 μM
Method: as §1, §2, §3, §4, §5, §6

[6] = tested on: BEL-7404 cells; experiment: Cytotoxicity assay (MTT assay); assay type: cell-based, human; details: for Inhibitory rates (%): BEL-7404, 20 μM
Method: as §1, §2, §3, §4, §5, §6

[7] = tested on: Hep-G2 cells; experiment: Cytotoxicity assay (MTT assay); assay type: cell-based, human; details: for Inhibitory rates (%): Hep-G2, 20 μM
Method: as §1, §2, §3, §4, §5, §6

[8] = tested on: HL-7702 normal cells; experiment: Cytotoxicity assay (MTT assay); assay type: cell-based, human; details: for Inhibitory rates (%): HL-7702, 20 μM
Method: To evaluate the cytotoxicity of chiral platinum(II) complexes, HeLa, BEL-7402, MGC80-3, BEL-7404, A549, Hep-G2 and HL-7702 cells (normal cells) were treated with varying concentrations of complexes 1–6 and cisplatin (positive control, cisplatin was dissolved at a concentration of 1.0 mM in 0.154 M NaCl) for 24 h and 48 h. The cell viability of each experimental group was examined by MTT assays. […] [61, 62].
as §2, §3

Molecule	Inhibitory rates (%) ([2]; 24 h)	Inhibitory rates (%) ([2]; 48 h)	IC50 ([2]; 24 h) [µM]	Inhibitory rates (%) ([3]; 24 h)	Inhibitory rates (%) ([3]; 48 h)	IC50 ([3]; A549, 24 h) [µM]	Inhibitory rates (%) ([4]; 24 h)	Inhibitory rates (%) ([4]; 48 h)	IC50 ([4]; MGC80-3, 24 h) [µM]	Inhibitory rates (%) ([5]; 24 h)	Inhibitory rates (%) ([5]; 48 h)	IC50 ([5]; BEL-7402, 24 h) [µM]	Inhibitory rates (%) ([6]; 24 h)	Inhibitory rates (%) ([6]; 48 h)	IC50 ([6]; BEL-7404, 24 h) [µM]	Inhibitory rates (%) ([7]; 24 h)	Inhibitory rates (%) ([7]; 48 h)	IC50 ([7]; Hep-G2, 24 h) [µM]	selectivity index factor, IC50 (normal HL-7702 cells)/IC50 (BEL-7404 tumor cells) ([8]; 24 h)	Inhibitory rates (%) ([8]; 24 h)	also measured
O=C(NCC(O)CO)c1cnc2c3c(cccc13)-c1ccccc1C2=O.[Cl-].[Cl-].[Pt+2] (racemic) [ligand 1, R/S-(±)-FOA]	25.6± 1.2	33.6 ± 1.3	69.3 ± 1.3	32.6 ± 0.4	48.4 ± 1.6	45.8 ± 0.3	18.6 ± 0.3	24.9 ± 2.2	87.2 ± 0.5	30.5 ± 1.4	38.9 ± 1.6	54.9 ± 1.2	35.9 ± 0.7	51.9 ± 2.7	41.2 ± 0.6	21.3 ± 1.9	27.8 ± 0.8	73.5 ± 2	3.4	11.0 ± 1.6	ctDNADC50/c-kit-2DC50 ([1]; FID selectivity ratio): < 0.64; c-kit-2DC50 ([1]; FID): > 100 µM; Inhibitory rates (%) ([8]; 48 h): 15.2 ± 0.6%; IC50 ([8]; HL-7702, 24 h): 141 ± 1.7 µM
cis-[PtCl2(R-(+)-FOA)] [complex 5]	8.6 ± 1.5	9.9 ± 0.7	168.6 ± 1.4	28.9 ± 0.5	35.9 ± 2.6	56.3 ± 0.7	11.3 ± 0.4	19.8 ± 1.8	135.1 ± 0.5	35.6 ± 2.1	42.1 ± 0.7	42.3 ± 1.9	46.1 ± 1.1	55.9 ± 2.7	22.5 ± 1.3	16.5 ± 1.4	23.3 ± 0.5	93.4 ± 1.2	3.6	30.6 ± 2.1	IC50 ([2]; 48 h): 64.2 ± 0.2 µM; IC50 ([3]; A549, 48 h): 17.2 ± 0.1 µM; IC50 ([4]; MGC80-3, 48 h): 37.4 ± 1.2 µM; IC50 ([5]; BEL-7402, 48 h): 38.4 ± 1.4 µM; IC50 ([6]; BEL-7404, 48 h): 14.5 ± 0.5 µM; IC50 ([7]; Hep-G2, 48 h): 35.7 ± 1.5 µM; selectivity index factor, IC50 (normal HL-7702 cells)/IC50 (BEL-7404 tumor cells) ([8]; 48 h): 3.9; Inhibitory rates (%) ([8]; 48 h): 37.5 ± 5.3%; IC50 ([8]; HL-7702, 24 h): 80.1 ± 1.8 µM; IC50 ([8]; HL-7702, 48 h): 55.8 ± 3.1 µM
cis-[PtCl2(S-(–)-FOA)] [complex 6]	21.1 ± 0.9	25.1 ± 1.4	78.2 ± 0.9	65.3 ± 1.3	84.7 ± 2.2	15.3 ± 1.2	25.1 ± 0.5	26.5 ± 1.1	72.8 ± 0.4	50.5 ± 1.6	58.4 ± 2.1	20.6 ± 1.5	70.9 ± 0.7	81.3 ± 0.4	10.1 ± 0.6	30.2 ± 1.6	39.3 ± 2.2	50.1 ± 1.8	11.8	20.7 ± 1.6	IC50 ([2]; 48 h): 31.8 ± 0.7 µM; IC50 ([3]; A549, 48 h): 8.2 ± 0.5 µM; IC50 ([4]; MGC80-3, 48 h): 31.5 ± 1.7 µM; IC50 ([5]; BEL-7402, 48 h): 15.3 ± 2.2 µM; IC50 ([6]; BEL-7404, 48 h): 7.9 ± 0.3 µM; IC50 ([7]; Hep-G2, 48 h): 17.7 ± 1.2 µM; selectivity index factor, IC50 (normal HL-7702 cells)/IC50 (BEL-7404 tumor cells) ([8]; 48 h): 10.7; Inhibitory rates (%) ([8]; 48 h): 33.9 ± 2.2%; IC50 ([8]; HL-7702, 24 h): 119 ± 1.5 µM; IC50 ([8]; HL-7702, 48 h): 84.2 ± 1.2 µM
N.N.[Cl][Pt][Cl] [cisplatin, reference compound]	64.3 ± 1.4	80.6 ± 0.9	15.8 ± 1.2	48.6 ± 0.4	51.1 ± 3.4	21.3 ± 0.7	61.5 ± 1.2	71.4 ± 1.5	16.3 ± 1.3	55.4 ± 0.9	65.7 ± 1.2	17.5 ± 0.6	45.5 ± 2.1	54.2 ± 1.4	24.8 ± 1.8	51.6 ± 0.6	60.6 ± 1.0	19.5 ± 0.5	0.8	59.6 ± 1.2	IC50 ([2]; 48 h): 5.8 ± 0.9 µM; IC50 ([3]; A549, 48 h): 17 ± 2.3 µM; IC50 ([4]; MGC80-3, 48 h): 5.4 ± 0.5 µM; IC50 ([5]; BEL-7402, 48 h): 13.5 ± 0.9 µM; IC50 ([6]; BEL-7404, 48 h): 15.8 ± 0.7 µM; IC50 ([7]; Hep-G2, 48 h): 9.5 ± 0.4 µM; selectivity index factor, IC50 (normal HL-7702 cells)/IC50 (BEL-7404 tumor cells) ([8]; 48 h): 1.0; Inhibitory rates (%) ([8]; 48 h): 73.6 ± 2.3%; IC50 ([8]; HL-7702, 24 h): 19.8 ± 1.3 µM; IC50 ([8]; HL-7702, 48 h): 15.6 ± 0.3 µM
cis-[PtCl2(R/S-(±)-FOA)] [complex 4]	18.5 ± 0.7	24.1 ± 2.1	90.5 ± 0.7	57.6 ± 0.6	77.8 ± 0.1	18.6 ± 0.5	22.0 ± 1.9	24.9 ± 1.4	80.6 ± 2	41.2 ± 0.6	48.6 ± 1.3	32.5 ± 0.5	67.3 ± 1.3	80.0 ± 4.3	12.5 ± 1.1	20.8 ± 0.3	27.6 ± 1.1	84.6 ± 0.4	6.8	28.3 ± 1.7	IC50 ([2]; 48 h): 38.1 ± 1.5 µM; IC50 ([3]; A549, 48 h): 9.1 ± 0.6 µM; IC50 ([4]; MGC80-3, 48 h): 32.1 ± 1.8 µM; IC50 ([5]; BEL-7402, 48 h): 20.7 ± 0.9 µM; IC50 ([6]; BEL-7404, 48 h): 8.7 ± 0.1 µM; IC50 ([7]; Hep-G2, 48 h): 29.1 ± 0.8 µM; selectivity index factor, IC50 (normal HL-7702 cells)/IC50 (BEL-7404 tumor cells) ([8]; 48 h): 6.7; Inhibitory rates (%) ([8]; 48 h): 31.6 ± 2.4%; IC50 ([8]; HL-7702, 24 h): 85.4 ± 1.5 µM; IC50 ([8]; HL-7702, 48 h): 58.5 ± 5.5 µM

From paper PMC5617480 (Oncotarget, 2017)
